Legend:
[1] = tested on: Tg2576 mice; parameters: method as in PMID 16192379; conditions: 100 mg/kg p.o., 3 h before training; cited from earlier work
[2] = tested on: Aph1AL containing γ-secretase complexes; assay: Cell-free AICD production from APP β-CTF (Western blot); type: biochemical, murine; conditions: 10 μM
Protocol: DAPT was used as a reference positive control for the assay. For each assay condition, a 5-μL microsomal fraction, containing 1% CHAPSO (3-[(3-cholamidopropyl)dimethylammonio]-2-hydroxy-1-propanesulfonate) from murine embryonic fibroblasts (MEF) lacking the Aph-1A, Aph-1B, and Aph-1C genes (triple knock out) and rescued with Aph-1AL, was prepared in a reaction mixture of 5 μL substrate (recombinant APP β-CTF 3-Flag-tagged) at 0.8 μM, 0.0125% phosphatidylethanolamine, 0.1%, phosphatidylcholine, 0.05% sphingomyelin, and 8.9 μL PIPES (piperazine-N,N′-bis[−ethanesulfonic acid]) buffer. […] For detection of AICD, one-half of the reaction mixture was purified by a methanol-chloroform extraction in order to remove lipids and hydrophobic proteins (e.g., APP β-CTF). This purified fraction was further analyzed by SDS-PAGE and Western blotting. AICD was detected with an ANTI-FLAG® antibody (Sigma-Aldrich). The other half of the reaction mixture was used to analyze the levels of Aβ1-40 and Aβ1-42 by AlphaLisa (Perkin Elmer, Waltham, MA).

[3] = tested on: Aβ42; parameters: method as in PMID 15304503; conditions: cited from earlier work
[4] = tested on: γ-secretase; assay: APP CTF accumulation in H4-APP751 cell lysates (Western blot); type: cell-based, human; conditions: H4-APP751 cells, 16 h
Source text: Cells were lysed in situ and the resulting lysate cleared of nuclei by centrifugation, as described elsewhere. Samples were fractionated by SDS-PAGE on a 12% NuPage gel (Invitrogen), transferred to a nitrocellulose membrane, and immunoblotted with an anti-APP-CTF antibody (Sigma-Aldrich).

[5] = tested on: γ-secretase (EphA4); assay: EphA4 CTF accumulation in rat primary neocortical cultures (Western blot); conditions: 24 h, as low as 100 nM
Protocol: Protein concentration of the lysate was determined by the BCA method, and 30 μg of total protein were loaded on a 10% Bis-Tris gel (Invitrogen). EphA4 CTF was visualized using an anti-EphA4-CTF antibody (Abnova, Walnut, CA) and an IRDye800CW® secondary antibody (Rockland Immunochemicals, Inc., Gilbertsville, PA). Detection was performed using an Odyssey scanner (LiCor Biosciences) and blots quantified using ImageJ software (available at http://rsbweb.nih.gov/ij).

[6] = tested on: AD patients; parameters: method as in PMID 18695053, PMID 21222550, PMID 22323718; conditions: cited from earlier work
[7] = tested on: Tg2576 mice; parameters: method as in PMID 10908610, PMID 12930788; conditions: diet of 375 ppm for 4–6 months; cited from earlier work

C[C@H](NC(=O)Cc1cc(F)cc(F)c1)C(=O)N[C@H](C(=O)OC(C)(C)C)c1ccccc1 [DAPT, N-(N-(3,5-difluorophenacetyl)-L-alanyl)-S-phenylglycine t-butyl ester, reference compound]
CFC cognitive deficit [1]: rapidly improved the CFC cognitive deficit
production of AICD from APP β-CTF [2]: almost completely abolished

C[C@@H](C(=O)O)c1ccc(-c2ccccc2)c(F)c1 [Flurizan™]
IC50 [3]: > 300 µM

C[C@H](NC(=O)[C@@H](O)c1cc(F)cc(F)c1)C(=O)N[C@@H]1C(=O)N(C)c2ccccc2-c2ccccc21 [LY-411,575, reference compound]
Full length APP ([4]; 1 nM to 10 μM): not altered
accumulation of APP α- or β-CTFs ([4]; concentration as low as 1 nM): led to their accumulation
EphA4 CTF accumulation [5]: led to EphA4 CTF accumulation

CC(C)[C@H](O)C(=O)N[C@@H](C)C(=O)N[C@@H]1C(=O)N(C)CCc2ccccc21 [Semegacestat]
toxicities in clinical trials in AD [6]: drug-related rashes, lightening of hair color, skin cancer, and more importantly, worsening of cognition and the ability to perform activities of daily living

CC(C)Cc1ccc(C(C)C(=O)O)cc1 (centres unmarked) [ibuprofen]
amyloid plaque load and inflammatory mediators [7]: marked decrease
